Literature values in patent US6475478B2, “Adsorbent, adsorbing and removing process and adsorber for endogenous cannabinoid” (Kaneka Corporation, priority 2000, dated 2002).

Conditions: octanol-water system; compound fixed on the carrier

| Structure (SMILES) | log P |
| --- | --- |
| CCCCN [n-butyl amine] | 0.97 |
| CCCCCCCCCCN [n-decyl amine] | 4.07 |
